The cell lines below were run with CC(O)(CS(=O)(=O)c1ccc(F)cc1)C(=O)Nc1ccc(C#N)c(C(F)(F)F)c1 [Bicalutamide] + CS(=O)(=O)N1CCN(Cc2cc3nc(-c4cccc5[nH]ncc45)nc(N4CCOCC4)c3s2)CC1 [Pictilisib] (partner 1 µM) (assay: relative viability (nuclei count vs DMSO), 5 days (fraction); higher = more cells survive). Settings: first compound 0.08 µM.
In short: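 For relative viability, nuclei counts in treated wells were divided by those in vehicle wells. Lung cancer cell lines had been pin-tool dosed in 1536-well plates the day after seeding and cultured for 5 days, then fixed and stained in one step (final 0.05% Triton X-100, 1% formaldehyde, 1 ug/ml Hoechst) and imaged at 4×. Doses were one drug alone or a fixed anchor-drug dose plus five library-drug doses (not always all listed) in √10 steps, and values are duplicate-plate medians.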

| Cell Line | relative viability |
| --- | --- |
| NCI-H2405 | 0.478 |
| NCI-H1395 | 0.596 |
| 201T | 0.685 |
| NCI-H1915 | 0.91 |
| HCC-827 | 1.01 |
| LXF-289 | 0.759 |
| NCI-H2347 | 0.735 |
| NCI-H650 | 0.726 |
| NCI-H1651 | 0.618 |
| EPLC-272H | 0.311 |
| NCI-H23 | 0.476 |
| NCI-H1792 | 0.299 |
| NCI-H1355 | 0.413 |
| NCI-H322M | 0.469 |
| NCI-H1437 | 0.475 |
| NCI-H1755 | 0.476 |
| NCI-H2085 | 0.445 |
| HCC-15 | 0.714 |
| NCI-H1793 | 0.285 |
| PC-3 [JPC-3] | 0.76 |
| EKVX | 0.456 |
| LC-2-ad | 0.536 |
| NCI-H1944 | 0.4 |
| NCI-H1975 | 0.291 |
| ABC-1 | 0.812 |
| NCI-H358 | 0.385 |
| RERF-LC-KJ | 0.628 |

Same assay, conditions: first compound 0.253 µM

| Cell Line | relative viability |
| --- | --- |
| HCC-78 | 0.179 |
| LCLC-97TM1 | 0.206 |
| A-427 | 0.812 |
| NCI-H460 | 0.335 |
| NCI-H727 | 0.456 |
| NCI-H1734 | 0.388 |
| NCI-H2405 | 0.421 |
| NCI-H1395 | 0.519 |
| 201T | 0.658 |
| NCI-H1915 | 0.782 |
| HCC-827 | 0.85 |
| LXF-289 | 0.728 |
| NCI-H2347 | 0.728 |
| NCI-H650 | 0.671 |
| NCI-H1651 | 0.429 |
| EPLC-272H | 0.266 |
| NCI-H23 | 0.446 |

| Cell Line | relative viability |
| --- | --- |
| NCI-H1792 | 0.224 |
| NCI-H1355 | 0.316 |
| NCI-H322M | 0.53 |
| NCI-H1437 | 0.381 |
| NCI-H1755 | 0.378 |
| NCI-H2085 | 0.461 |
| HCC-15 | 0.699 |
| NCI-H1793 | 0.208 |
| PC-3 [JPC-3] | 0.56 |
| EKVX | 0.366 |
| LC-2-ad | 0.459 |
| NCI-H1944 | 0.296 |
| NCI-H1975 | 0.331 |
| ABC-1 | 0.731 |
| NCI-H358 | 0.361 |
| RERF-LC-KJ | 0.506 |

Same assay, conditions: first compound 0.8 µM

| Cell Line | relative viability |
| --- | --- |
| HCC-78 | 0.208 |
| NCI-H441 | 0.513 |
| LCLC-97TM1 | 0.228 |
| A-427 | 0.867 |
| NCI-H460 | 0.478 |
| NCI-H727 | 0.377 |
| NCI-H1734 | 0.593 |
| NCI-H2405 | 0.556 |
| NCI-H1395 | 0.687 |
| 201T | 0.742 |
| NCI-H1915 | 1 |
